Measured values: US9604923B2 (H. LEE MOFFITT CANCER CENTER AND RESEARCH INSTITUTE, INC., priority 2006, dated 2017)

Assays:
STAT3 = STAT3 (Mus musculus, UniProt P42227); test: Inhibition of STAT3 dimerization, EMSA assay; type: binding; set-up: endogenous in cells; host or cells: nuclear extracts per the general EMSA method
Stat3:3 = molecular target: T1, Stat3:3 (Mus musculus, UniProt P42227); test: STATs DNA-binding activity in vitro, EMSA with hSIE probe; settings: for IC50: Table 4, read-out: IC50 values for the inhibition of STATs DNA-binding activity in vitro, Stat3:3; for selectivity among STAT family members, in words: nuclear extracts of EGF-stimulated NIH3T3/hEGFR
T1 construct: endogenous in cells; host or cells: NIH3T3/v-Src or EGF-stimulated NIH3T3/hEGFR mouse fibroblasts, nuclear extracts

Stat1:3 = molecular target: T2, Stat1:3 (Mus musculus, UniProt P42227); test: as above; settings: Table 4; read-out: IC50 values for the inhibition of STATs DNA-binding activity in vitro, Stat1:3
T2 construct: endogenous in cells; host or cells: EGF-stimulated NIH3T3/hEGFR mouse fibroblasts, nuclear extracts

Stat1:1 = molecular target: T3, Stat1:1 (Mus musculus, UniProt P42225); test: STATs DNA-binding activity in vitro, EMSA; settings: Table 4; read-out: IC50 values for the inhibition of STATs DNA-binding activity in vitro, Stat1:1
T3 construct: endogenous in cells; host or cells: EGF-stimulated NIH3T3/hEGFR mouse fibroblasts, nuclear extracts
T3 sequence (P42225 2-749 limits assumed): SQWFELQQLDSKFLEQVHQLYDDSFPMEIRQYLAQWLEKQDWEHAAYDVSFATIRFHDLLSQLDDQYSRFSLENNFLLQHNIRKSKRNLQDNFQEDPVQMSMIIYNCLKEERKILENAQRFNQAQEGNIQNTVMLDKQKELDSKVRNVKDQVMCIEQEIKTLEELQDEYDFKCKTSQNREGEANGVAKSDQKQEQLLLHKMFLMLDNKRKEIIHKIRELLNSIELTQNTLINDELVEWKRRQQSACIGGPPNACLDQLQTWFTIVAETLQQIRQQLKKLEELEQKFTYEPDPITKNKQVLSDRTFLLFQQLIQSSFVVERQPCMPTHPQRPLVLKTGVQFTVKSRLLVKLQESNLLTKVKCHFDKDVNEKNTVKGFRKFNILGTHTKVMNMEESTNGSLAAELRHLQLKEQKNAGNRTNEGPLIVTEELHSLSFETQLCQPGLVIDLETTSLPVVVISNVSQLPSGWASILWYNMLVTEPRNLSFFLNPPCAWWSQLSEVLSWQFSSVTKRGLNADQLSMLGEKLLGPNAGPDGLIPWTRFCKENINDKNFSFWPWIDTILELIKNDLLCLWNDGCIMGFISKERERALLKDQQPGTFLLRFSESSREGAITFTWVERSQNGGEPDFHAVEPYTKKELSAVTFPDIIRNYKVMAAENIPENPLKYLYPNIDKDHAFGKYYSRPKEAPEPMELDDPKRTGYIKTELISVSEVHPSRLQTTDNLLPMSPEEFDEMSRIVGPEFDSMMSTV

Stat5:5 = test: STATs DNA-binding activity in vitro, EMSA with MGFe probe; set-up: species or system mouse; settings: Table 4; read-out: IC50 values for the inhibition of STATs DNA-binding activity in vitro, Stat5:5

T2 sequence (P42227 2-770 limits assumed): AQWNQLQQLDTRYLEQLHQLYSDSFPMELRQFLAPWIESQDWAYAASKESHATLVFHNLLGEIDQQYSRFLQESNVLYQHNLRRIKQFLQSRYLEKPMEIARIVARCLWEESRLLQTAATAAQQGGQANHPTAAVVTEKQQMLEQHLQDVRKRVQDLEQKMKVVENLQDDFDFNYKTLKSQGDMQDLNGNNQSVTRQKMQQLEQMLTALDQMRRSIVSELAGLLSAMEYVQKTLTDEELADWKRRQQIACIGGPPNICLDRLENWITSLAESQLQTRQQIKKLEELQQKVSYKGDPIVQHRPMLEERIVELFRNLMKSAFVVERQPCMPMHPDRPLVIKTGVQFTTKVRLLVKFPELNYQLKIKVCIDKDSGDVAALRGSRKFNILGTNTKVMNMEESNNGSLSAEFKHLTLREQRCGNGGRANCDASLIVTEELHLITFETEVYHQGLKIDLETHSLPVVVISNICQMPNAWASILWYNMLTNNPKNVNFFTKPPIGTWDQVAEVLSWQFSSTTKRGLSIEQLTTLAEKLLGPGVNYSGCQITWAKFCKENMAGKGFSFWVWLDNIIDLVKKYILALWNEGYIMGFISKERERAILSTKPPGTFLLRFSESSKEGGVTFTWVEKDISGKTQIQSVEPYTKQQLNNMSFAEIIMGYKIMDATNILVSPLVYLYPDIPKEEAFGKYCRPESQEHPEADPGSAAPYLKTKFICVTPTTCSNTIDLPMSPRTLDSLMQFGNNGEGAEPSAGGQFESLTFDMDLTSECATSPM
T1 sequence (P42227 2-770 limits assumed): as above
Sequence of STAT3 (P42227 2-770 limits assumed): as above

IC50 (STAT3) [µM] | inhibition of Stat3 DNA-binding activity, in words (Stat3:3) | IC50 (Stat3:3) [µM] | IC50 (Stat1:3) [µM] | IC50 (Stat1:1) [µM] | IC50 (Stat5:5) [µM] | Compound | selectivity among STAT family members, in words (Stat3:3)
> 500 |  |  |  |  |  | Cc1ccc(S(=O)(=O)NCC(=O)Nc2ccc(C(=O)O)c(O)c2)cc1 [Compound 11] | 
> 500 |  |  |  |  |  | O=C(COS(=O)(=O)c1ccc(-c2ccc(Cl)cc2)cc1)Nc1ccc(C(=O)O)c(O)c1 [Compound 15, 4-(2-(4′-Chlorobiphenyl-4-ylsulfonyloxy)acetamido)-2-hydroxybenzoic acid] | 
> 500 |  |  |  |  |  | O=C(COS(=O)(=O)c1ccc(-c2ccccc2)cc1)Nc1ccc(C(=O)O)cc1 [Compound 20, 4-(2-(Biphenyl-4-ylsulfonyloxy)acetamido)benzoic acid] | 
> 500 |  |  |  |  |  | O=C(COCc1ccccc1)Nc1ccc(C(=O)O)c(O)c1 [Compound 23, 4-(2-(Benzyloxy)acetamido)-2-hydroxybenzoic acid] | 
< 500 |  |  |  |  |  | O=C(CCS(=O)(=O)c1ccccc1)Nc1ccc(C(=O)O)c(O)c1 [Compound 24, 4-(3-(Phenylsulfonyl)propanamido)-2-hydroxybenzoic acid] | 
< 500 |  |  |  |  |  | O=C(CCS(=O)(=O)c1ccccc1)Nc1ccc(C(=O)O)cc1 [Compound 25, 4-(3-(Phenylsulfonyl)propanamido)benzoic acid] | 
> 500 |  |  |  |  |  | O=C(CCCc1ccccc1)Nc1ccc(C(=O)O)cc1 [Compound 27, 4-(4-Phenylbutanamido)benzoic acid] | 
> 500 |  |  |  |  |  | CCOC(=O)c1ccc(NC(=O)CCc2ccc3ccccc3c2)cc1 [Compound 69, Ethyl 4-(3-(naphthalen-2-yl)propanamido)benzoate] | 
> 500 |  |  |  |  |  | O=C(CCc1ccccc1)Nc1ccc(C(=O)O)cc1 [Compound 72, 4-(3-Phenylpropanamido)benzoic acid] | 
> 500 |  |  |  |  |  | O=C(CCc1ccccc1)Nc1ccc(C(=O)O)c(O)c1 [Compound 73, 4-(3-Phenylpropanamido)-2-hydroxybenzoic acid] | 
< 500 |  |  |  |  |  | COC(=O)c1ccc2cc(C(=O)Nc3cc(C(=O)O)ccc3O)ccc2c1 [Compound 75, 4-hydroxy-3-(6-(methoxycarbonyl)-2-naphthamido)benzoic acid] | 
 |  | 85 | 68 | 95 | 125 | C=CC1=C(C)/C(=C/c2[nH]c(Cc3[nH]c(/C=C4\NC(=O)C(C)=C4C=C)c(C)c3CCC(=O)O)c(CCC(=O)O)c2C)NC1=O [NSC 26685] | 
 | Potent inhibition | 65 | 86 | 197 | 88 | O=C(O)c1cc(O)c(O)c(OC(=O)c2cc(O)c(O)c(O)c2CNc2ccc3cc(S(=O)(=O)O)cc(S(=O)(=O)O)c3c2)c1 [NSC 42067] | preferentially inhibit Stat3 and Stat5 over that of Stat1
 |  | 292 | 300 | 300 | > 300 | CC(CCC(=O)O)(c1ccc(OC(=O)Nc2ccccc2Cl)cc1)c1ccc(OC(=O)Nc2ccccc2Cl)cc1 [NSC 51926] | 
 | Potent inhibition | 160 | 104 | 72 | > 300 | Cc1cc(N=Nc2ccc(-c3ccc(N=Nc4ccc(O)c(C(=O)O)c4)cc3)cc2)c(N)c(N=Nc2cc(C(=O)O)ccc2Cl)c1N.[Na+] [NSC 75912] | preferentially inhibits Stat1 over Stat3 or Stat5
 |  | 276 | 263 | 113 | > 300 | Cc1cc(N=Nc2ccc(-c3ccc(N=Nc4ccc(O)c(C(=O)O)c4)cc3)cc2)c(N)c(N=Nc2cccc(OCC(=O)O)c2)c1N [NSC 75914] | 
 |  | 275 | > 300 | > 300 | 288 | CC(C)NC(=O)c1cc(NC(=O)c2ccc(C(=O)Nc3cc(C(=O)NC(C)C)cc(C4=NCCN4)c3)cc2)cc(C2=NCCN2)c1 [NSC 101595] | 
 |  | 202 | 292 | > 300 | > 300 | O=C(O)c1cc(N=C2C=CC(=C(c3ccccc3)c3ccc(Nc4ccc(Cl)c(C(=O)O)c4)cc3)C=C2)ccc1Cl [NSC 117907] | 
 |  | 225 | 256 | 253 | 255 | O=C(/C=C/c1ccccc1)NC(=S)Nc1ccc(C(=O)O)cc1 [NSC 205965] | 
 |  | 220 | 290 | > 300 | > 300 | CCCCCCCCCCCC(=O)NC(=S)Nc1ccc(C(=O)O)cc1 [NSC 216360] | 
 |  | 245 | 250 | 205 | 250 | N#Cc1cc([N+](=O)[O-])ccc1NC(=O)C(=O)Nn1c(=S)[nH]c2ccccc2c1=O [NSC 645885] | 

Second part, the molecule before the results:

Compound | IC50 (STAT3) [µM] | inhibition of Stat3 DNA-binding activity, in words (Stat3:3) | IC50 (Stat3:3) [µM] | IC50 (Stat1:3) [µM] | IC50 (Stat1:1) [µM] | IC50 (Stat5:5) [µM] | selectivity among STAT family members, in words (Stat3:3)
Cc1ccc(S(=O)(=O)OCC(=O)Nc2ccccc2)cc1 [Compound 6, 2-Oxo-2-(phenylamino)ethyl 4-methylbenzenesulfonate] | > 500 |  |  |  |  |  | 
Cc1ccc(S(=O)(=O)OCC(=O)Nc2ccc(C#N)cc2)cc1 [Compound 7, 2-(4-Cyanophenylamino)-2-oxoethyl 4-methylbenzenesulfonate] | > 500 |  |  |  |  |  | 
Cc1ccc(S(=O)(=O)OCC(=O)Nc2ccc(S(N)(=O)=O)cc2)cc1 [Compound 8, 2-Oxo-2-(4-sulfamoylphenylamino)ethyl 4-methylbenzenesulfonate] | > 500 |  |  |  |  |  | 
O=C(COCc1ccccc1)Nc1ccc(C(=O)O)cc1 [Compound 22, 4-(2-(Benzyloxy)acetamido)benzoic acid] | > 500 |  |  |  |  |  | 
N#Cc1ccc(NC(=O)CNS(=O)(=O)c2ccc(-c3ccccc3)cc2)cc1 [Compound 28, 2-(Biphenyl-4-ylsulfonamido)-N-(4-cyanophenyl)acetamide] | > 500 |  |  |  |  |  | 
O=C(CNS(=O)(=O)c1ccc(-c2ccccc2)cc1)Nc1ccc(S(=O)(=O)O)cc1 [Compound 29, 4-(2-(Biphenyl-4-ylsulfonamido)acetamido)benzenesulfonic acid] | > 500 |  |  |  |  |  | 
NS(=O)(=O)c1ccc(NC(=O)CNS(=O)(=O)c2ccc(-c3ccccc3)cc2)cc1 [Compound 30, 2-(Biphenyl-4-ylsulfonamido)-N-(4-sulfamoylphenyl)acetamide] | > 500 |  |  |  |  |  | 
O=C(CNS(=O)(=O)c1ccc(-c2ccc(Cl)cc2)cc1)Nc1ccc(C(=O)O)cc1 [Compound 31] | > 500 |  |  |  |  |  | 
O=C(CNS(=O)(=O)c1ccc(-c2ccccc2)cc1)Nc1ccc(C(=O)O)cc1 [Compound 32] | > 500 |  |  |  |  |  | 
Cc1ccc(S(=O)(=O)NCC(CC(=O)Nc2ccccc2)c2ccc(Cl)cc2)cc1 (centres unmarked) [Compound 36, 3-(4-Chlorophenyl)-4-(4-methylphenylsulfonamido)-N-phenylbutanamide] | < 500 |  |  |  |  |  | 
O=C1C=C(Nc2ccc(S(=O)(=O)Nc3ccccn3)cc2)C(=O)C=C1Nc1ccc(S(=O)(=O)Nc2ccccn2)cc1 [NSC 11421] |  | notable potent inhibitors | 80 | 145 | 105 | 221 | 
O=C1c2ccccc2-c2ccc(N(Cc3ccc([N+](=O)[O-])cc3)Cc3ccc([N+](=O)[O-])cc3)cc21 [NSC 24056] |  |  | 245 | 256 | 267 | 235 | 
O=C(Nc1cccc(NC(=O)C(=O)O)c1)Oc1ccccc1 [NSC 71906] |  |  | 295 | 258 | 225 | 285 | 
O=C(OC1COC(n2c(=O)oc3cc([N+](=O)[O-])ccc32)C(OC(=O)c2ccccc2)C1OC(=O)c1ccccc1)c1ccccc1 (centres unmarked) [NSC 87849] |  |  | > 300 | > 300 | > 300 | > 300 | 
CN=C(Nc1ccccn1)c1ccc(NC(=O)c2ccc(C(=O)Nc3ccc(C(=NC)Nc4ccccn4)cc3)cc2)cc1 [NSC 90438] |  |  | > 300 | > 300 | > 300 | > 300 | 
CCOc1cccc2c(NCCCCCCCCNc3c4ccccc4nc4c(OCC)cccc34)c3ccccc3nc12 [NSC 263435] |  | notable potent inhibitors | 25 | 40 | 50 | 25 | 
CC(=O)NNc1nc(C)c(C(/C=C/c2cccc([N+](=O)[O-])c2)=N/NC(=S)NN)s1 [NSC 647608] |  |  | 295 | > 300 | > 300 | > 300 | 
